In patent US11753407B2, “Compounds for treating spinal muscular atrophy” (PTC Therapeutics, Inc., priority 2012, dated 2023):

How the values were obtained:
[1] = system: SMN2 minigene mRNA (SMN2-A minigene) in HEK293H cells; test: SMN2 minigene mRNA splicing RT-qPCR assay in cultured cells; assay type: cell-based, human; details: for SMN2 minigene FL mRNA: HEK293H cells with SMN2 minigene, rising concentrations, 24 hr, relative to vehicle (FIG. 3); for EC (1.5-fold increase): Homo sapiens, HEK293-H, concentration increasing full length SMN2 mRNA 1.5-fold relative to vehicle-treated cells, HEK293H cells with SMN2-A minigene, 24 hours, 7-point concentration data, read-out: EC1.5x for production of full length SMN2 mRNA; for exon 7 inclusion: SMN2 minigene, relative to untreated cells (FIG. 3)
In short: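 Cells are seeded, left to attach 4-6 h, then dosed with test compound across seven concentrations and incubated 24 h. Lysates undergo RT-qPCR with primers/probe specific to the exon 7-containing minigene transcript, co-amplified with GAPDH. Fold change over vehicle is calculated, and EC1.5× marks the 1.5-fold point.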

[2] = system: SMN2 mRNA in tissues of C/C-allele SMA mice; test: Endogenous SMN2 mRNA end-point semi-quantitative RT-PCR splicing assay in animal tissues; assay type: in vivo; details: brain and muscle, BID oral gavage 10 days, end-point RT-PCR (FIG. 7)
Procedure: The endpoint reverse transcription-PCR (RT-PCR) splicing assay is used to quantify the levels of the full length and Δ7 SMN2 mRNA in tissues from mice treated with test compound.
Protocol. C/C-allele SMA mice are treated by oral gavage BID for 10 days with test compounds in 0.5% HPMC and 0.1% Tween-80. Tissue samples are collected and snap frozen for RNA purification.
Tissue samples (20-40 mg) are homogenized in QIAzol Lysis Reagent for 2 minutes at 20 Hz in the TissueLyser II using one stainless steel bead. After addition of chloroform, the homogenate is separated into aqueous and organic phases by centrifugation. RNA partitioned to the upper, aqueous phase is extracted and ethanol is added to provide appropriate binding conditions. The sample is then applied to the RNeasy spin column from the RNeasy Mini Kit, where total RNA binds to the membrane. The RNA is eluted in RNase-free water then stored at −20° C.
SMN2 spliced products are identified using the following amplification primers in Table 8. These primers hybridize to a nucleotide sequence in exon 6 (SMN Forward D, SEQ ID NO. 13) (nucleotide 22 to nucleotide 46) and exon 8 (SMN Reverse C, SEQ ID NO. 12), common to human SMN1 and SMN2 mRNA.
To synthesize cDNA, combine 1 μL of RNA solution (25-50 ng), 4 μL of 5× iScript reaction mix, 1 μL of reverse transcriptase, and 10 μL of water are combined and incubates 25° C. for 5 min followed by 42° C. for 30 min followed by 85° C. for 5 min. The cDNA solution is stored at −20° C.
To perform endpoint PCR, 5 μL of cDNA, 0.2 μL of 100 μM forward primer, 0.2 μL of 100 μM reverse primer, and 22.5 μL of polymerase super mix are combined in a 96 well semiskirted PCR plate. PCR is carried out at the following temperatures for the indicated time: Step 1: 94° C. (2 min), Step 2: 94° C. (30 sec), Step 3: 55° C. (30 sec), Step 4: 68° C. (1 min), then repeat Steps 2 to 4 for a total of 33 cycles, then hold at 4° C.
10 μL of each PCR sample is electrophoretically separated on a 2% agarose E-gel for 14 minutes stained with dsDNA staining reagents (e.g., ethidium bromide) and visualized using a gel imager.

COc1ccc(-c2cc(=O)n3cc(N4CCNCC4)ccc3n2)cc1OC [Cpd 6, 2-(3,4-dimethoxyphenyl)-7-(piperazin-1-yl)-4H-pyrido[1,2-a]pyrimidin-4-one]
SMN2 minigene FL mRNA [1]: increased SMN2 minigene FL mRNA at low concentrations | EC (1.5-fold increase) [1]: < 0.1 µM | exon 7 inclusion [1]: fully restored exon 7 inclusion | SMN2 FL mRNA [2]: progressively more SMN2 FL mRNA | SMN2 Δ7 mRNA [2]: less SMN2 Δ7 mRNA

Cc1cn2nc(-c3cc(=O)n4cc(N5CCN(C)CC5)ccc4n3)cc2c(C)n1 [Cpd 170, 2-(4,6-dimethylpyrazolo[1,5-a]pyrazin-2-yl)-7-(4-methylpiperazin-1-yl)-4H-pyrido[1,2-a]pyrimidin-4-one]
SMN2 minigene FL mRNA [1]: increased SMN2 minigene FL mRNA at low concentrations | EC (1.5-fold increase) [1]: < 0.1 µM | exon 7 inclusion [1]: fully restored exon 7 inclusion | SMN2 FL mRNA [2]: progressively more SMN2 FL mRNA | SMN2 Δ7 mRNA [2]: less SMN2 Δ7 mRNA
